According to patent US20210017607A1, “Methods of Predicting Responsiveness to Cancer Therapies” (The University of Chicago, priority 2019, published 2021):

Assays:
[1] = test system: Myc-CAP tumors with Intermediate tumor cell intrinsic levels of STING; test: Survival of mice bearing STING-overexpressing Myc-CAP tumors; type: in vivo, mouse; conditions: DMXAA single intra-tumoral dose
Experimental: FIG. 52. STING agonist treatment is protective to mice bearing Myc-CAP tumors with Intermediate (not high) tumor cell intrinsic levels of STING. Syngeneic mice bearing Myc-CAP wild-type (WT) and STING overexpressed (STING OE; clone 34) or STING intermediate (STING OE; clone 35) tumors (200 mm^3) were treated with DMXAA ([…] intra-tumoral dose). Tumors were monitored until cut-off tumor volume of 2500 mm^3, and Kaplan Meier curves were plotted. n=3 mice per cohort.

[2] = test system: Myc-CAP (STING^lo) cells; test: p-γH2AX foci (DNA DSBs) by confocal microscopy; type: cell-based, mouse
Excerpt: (§1) FIGS. 29A-29M. PARPi alone induces DNA DSBs, but not apoptosis even in combination with PI3Ki in Myc-CAP (STING^lo) cancer cells; PARPi/PI3Ki combination induces intracellular DNA DSBs and proportionate release of MV surface-associated DNA DSBs from B6-Myc (STINGhi) cancer cells without affecting cellular viability; PARPi/PI3K treatment activates tumor-cell extrinsic cGAS/STING pathway within TAMs in vivo via MV surface-associated DNA DSBs released from tumor cells. Myc-CAP cancer cells were treated with the indicated drugs singly or in combination for 36 hours. (29A) Cells were stained with anti-mouse specific p-γH2AX antibody and a fluorescently labeled secondary antibody for determination of DNA DSBs, which were quantified by confocal microscopy. (29B) Protein extracts from cells in 29A were analyzed for the indicated pharmacodynamic biomarkers by western blotting; (29C) Annexin V-PI staining was done to assess frequency of live cells (Annexin V^− PI^−) following drug treatment. (29D) Ultracentrifugation was utilized to purify microvesicles (MVs) from supernatants in treatment groups in (29A) and associated DNA DSBs was quantified by Nanodrop®. Independent experiments n=2. (29E) Ultracentrifugation was utilized to purify MVs from supernatants in indicated treatment groups in FIG. 17A, and associated DNA DSBs were quantified by Nanodrop®; n=2 independent experiments. […]

[3] = test system: Myc-CAP (STING^lo) cells; test: Annexin V-PI viability assay; type: cell-based, mouse; conditions: rucaparib 500 nM, buparlisib 1 μM, singly and in combination
Excerpt: as §1

[4] = test system: PI3K; test: In vitro target inhibition by western blotting (PI3K/AKT); type: cell-based, mouse
[5] = test system: B6-Myc (STING^hi) cells; test: p-γH2AX foci (DNA DSBs) by confocal microscopy; type: cell-based, mouse; conditions: 36 hours; rucaparib 500 nM, buparlisib 1 μM
Experimental: FIGS. 17A-17C. PARPi/PI3Ki combination induces intracellular DNA DSBs, and proportionate release of MV surface-associated DNA DSBs from B6-Myc (STING^hi) cancer cells, without affecting cellular viability. B6-Myc (STING^hi) cells were treated with indicated drugs singly or in combination for 36 hours. (17A) Cells were stained with anti-mouse specific p-γH2AX antibody and fluorescently labeled secondary antibody for determination of DNA DSBs, which were quantified by confocal microscopy. (17B) Protein extracts from cells in (17A) were analyzed for the indicated pharmacodynamic biomarkers by western blotting. […] Significance/p-values were calculated by one-way ANOVA.
Confocal Microscopy. […] Staining for DNA DSBs was done with anti-mouse primary antibody specific for phospho-γH2AX (1:500 dilution, Cell Signaling Technology and secondary anti-rabbit IgG antibody conjugated to AF647 (1:1000-1:2000 dilution in 1×PBS, Thermo Fisher Scientific®). Anti-mouse specific β-actin conjugated to Phycoerythrin (PE, Thermo Fisher Scientific®) was used to stain the cytoskeleton. All staining procedures were done at 4° C. for 30 minutes. Cells were then washed 3 times with 1×PBS and imaged immediately. All images were collected using an Olympus Fluoview® 1000 using a 100× oil objective. Acquired images were analyzed by ImageJ software, developed at NIH.

[6] = test system: PARP; test: In vitro target inhibition by western blotting (PARylation); type: cell-based, mouse

Row | SMILES | survival (Kaplan Meier) [1] | DNA damage on addition to rucaparib, relative to rucaparib alone [2] | viability of cells [3] | concentration that achieved complete target inhibition in vitro ([4]; B6-Myc cells (FIG. 17B)) [µM] | target inhibitory concentration ([4]; BMDMs (FIG. 30A)) | activation of the PI3K/AKT pathway within BMDMs ([4]; BMDMs co-cultured with R-MVs, 24 hours) | complete target inhibition concentration ([4]; Myc-CAP cells (FIG. 29B)) [µM] | DNA DSBs (number of p-γH2AX foci) ([2]; 36 hours) | DNA double-strand breaks (p-γH2AX foci) [5] | concentration that achieved complete target inhibition in vitro ([6]; B6-Myc cells (FIG. 17B)) [nM] | concentration that completely inhibits PARylation ([6]; B6-Myc in vitro) [nm] | complete target inhibition concentration ([6]; Myc-CAP cells (FIG. 29B)) [nM]
1 | Cc1ccc2c(=O)c3cccc(CC(=O)O)c3oc2c1C [DMXAA, 5,6-Dimethylxanthenone-4-acetic Acid] | protective |  |  |  |  |  |  |  |  |  |  | 
2 | Nc1cc(C(F)(F)F)c(-c2cc(N3CCOCC3)nc(N3CCOCC3)n2)cn1 [buparlisib] |  | did not further increase DNA damage | no change in the viability | 1 | 1 | inhibits activation of the PI3K/AKT pathway | 1 |  |  |  |  | 
3 | CNCc1ccc(-c2[nH]c3cc(F)cc4c3c2CCNC4=O)cc1 [rucaparib] |  |  | no change in the viability |  |  |  |  | increase in DNA DSBs | did not show a statistically significant increase | 500 | 500 | 500
